Results reported in US10221163B2 (priority 2015, dated 2019).
Where two headings read alike, the source gives them in different places.

Columns and labels:
[1] = system: Pseudomonas aeruginosa MB9798 vs MB9799; conditions: ratio MITC95 PA_9798/MITC95 PA_9799
Procedure, shortened: (§1)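 PAO1 pair, broth microdilution; fixed β-lactam (imipenem/ceftazidime) at ~CLSI breakpoint + fixed class A/C BLI for AmpC; serial MBLi titration; endpoint = MBLi conc. restoring susceptibility; MB9798:MB9799 ratio = efflux liability.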

[2] = system: Pseudomonas aeruginosa efflux+ (MB9798), IMP-1; type: cell-based; conditions: concentration restoring susceptibility to imipenem at 2 μg/mL in the presence of a class A, C, D serine β-lactamase inhibitor closely related to relebactam
Procedure, shortened: as §1

[3] = system: Serratia marcescens expressing IMP-1 (CL5741); type: cell-based; conditions: IMP-1 strain CL5741, with imipenem 1 μg/ml, 95% inhibition of growth
Procedure, shortened: (§2)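 Growth by absorbance after 22–24 h at 35°C defined the read-out, with imipenem fixed at 1 μg/ml alongside compound. Inocula came from overnight blood-agar colonies at 35°C, resuspended in saline and diluted 1:100 in 1.1×CAMHB.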

[4] = system: Escherichia coli expressing NDM-1 (CLB30005, CLB30016); type: cell-based; conditions: NDM-1 strain, with imipenem 1 μg/ml, 95% inhibition of growth
Procedure, shortened: as §2

[5] = system: Klebsiella pneumoniae expressing VIM-1 (IHMA599644); type: cell-based; conditions: VIM-1 strain IHMA599644, with imipenem 1 μg/ml, 95% inhibition of growth
Procedure, shortened: as §2

[6] = system: Pseudomonas aeruginosa efflux− (MB9799), IMP-1; type: cell-based; conditions: concentration restoring susceptibility to imipenem at 2 μg/mL in the presence of a class A, C, D serine β-lactamase inhibitor closely related to relebactam
Procedure, shortened: as §1

[7] = target: NDM-1 (Klebsiella pneumoniae, UniProt C7C422); experiment: biochemical; type: biochemical; conditions: fluorescence assay, CCF2-FA substrate, 1 pM enzyme, 2 hours at 25° C.; read-out: NDM-1 IC50
Chain of NDM-1 (C7C422 whole entry, looked up, species assumed): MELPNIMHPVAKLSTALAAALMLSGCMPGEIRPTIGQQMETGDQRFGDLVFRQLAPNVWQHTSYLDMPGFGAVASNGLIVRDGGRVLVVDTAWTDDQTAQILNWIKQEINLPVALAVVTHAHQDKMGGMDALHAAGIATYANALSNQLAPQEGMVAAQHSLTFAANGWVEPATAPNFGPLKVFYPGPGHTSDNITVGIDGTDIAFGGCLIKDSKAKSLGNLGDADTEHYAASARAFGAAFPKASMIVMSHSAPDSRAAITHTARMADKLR
Procedure, shortened: (§3)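 Enzyme activity was measured by fluorescence using CCF2-FA, a cephalosporin-linked 7-hydroxycoumarin/fluorescein substrate, with inhibitor, metallo-β-lactamase and substrate incubated together for 2 hours at 25° C. IC50 came from a 4-parameter fit of inhibition versus log inhibitor concentration.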

[8] = target: IMP-1 (Serratia marcescens, UniProt P52699); experiment: biochemical; type: biochemical; conditions: fluorescence assay, CCF2-FA substrate, 2 pM enzyme, 2 hours at 25° C.; read-out: IMP-1 IC50
Chain of IMP-1 (P52699 whole entry, looked up, species assumed): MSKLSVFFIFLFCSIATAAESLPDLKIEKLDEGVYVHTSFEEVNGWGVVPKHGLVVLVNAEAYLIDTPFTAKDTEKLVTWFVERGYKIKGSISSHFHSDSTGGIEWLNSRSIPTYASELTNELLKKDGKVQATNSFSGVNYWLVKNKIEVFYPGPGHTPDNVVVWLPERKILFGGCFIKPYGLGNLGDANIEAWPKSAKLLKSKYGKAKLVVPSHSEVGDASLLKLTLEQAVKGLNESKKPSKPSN
Procedure, shortened: as §3

[9] = target: VIM-1 (Pseudomonas aeruginosa (strain ATCC 15692 / DSM 22644 / CIP 104116 / JCM 14847 / LMG 12228 / 1C / PRS 101 / PAO1), UniProt A0A0F7KYQ8); experiment: biochemical; conditions: CCF2-FA substrate, 30 pM enzyme, 2 hours at 25° C.
Procedure, shortened: as §3

[10] = fluorescence assay, read-out: VIM-1 IC50

Row | SMILES | Efflux ratio [1] | P. aeruginosa expressing IMP-1, efflux + (MB9798) MITC95 [2] [µM] | Serratia marcescens MITC95 [3] [µM] | Escherichia coli MITC95 [4] [µM] | Klebsiella pneumoniae MITC95 [5] [µM] | P. aeruginosa expressing IMP-1, efflux − (MB9799) MITC95 [6] [µM] | IC50 [7] [nM] | IC50 [8] [nM] | IC50 ([9]; VIM-1 IC50, fluorescence assay) [nM] | IC50 [9, 10] [nM]
1 | Cn1c(N)nc2c(-c3ccc(S(=O)(=O)NC[C@@H](O)CN)c(S(N)(=O)=O)c3-c3nn[nH]n3)cccc21 [Example 308, (S)-4-(2-amino-1-methyl-1H-benzo[d]imidazol-4-yl)-N1-(3-amino-2-hydroxypropyl)-3-(2H-tetrazol-5-yl)benzene-1,2-disulfonamide] | 1.00 | 0.7813 | 0.7813 | 0.3906 | 1.563 | 0.7813 | 0.0619 | 0.403 | 0.179 | 
2 | NC[C@H](O)CNS(=O)(=O)c1ccc(-c2ccc(N)nc2)c(-c2nn[nH]n2)c1S(N)(=O)=O [Example 309, (S)-N1-(3-amino-2-hydroxypropyl)-4-(6-aminopyridin-3-yl)-3-(2H-tetrazol-5-yl)benzene-1,2-disulfonamide] | 1.00 | 0.7813 | 0.5208 | 0.2279 | 1.563 | 0.7813 | 0.197 | 0.501 | 0.2 | 
3 | Nc1nc2c(-c3ccc(S(=O)(=O)NC[C@@H]4CNCCN4)c(S(N)(=O)=O)c3-c3nn[nH]n3)cccc2[nH]1 [Example 310, (S)-4-(2-amino-1H-benzo[d]imidazol-4-yl)-N1-(piperazin-2-ylmethyl)-3-(2H-tetrazol-5-yl)benzene-1,2-disulfonamide] | 1.00 | 0.7813 | 0.7813 | 0.7813 | 1.563 | 0.7813 | 0.0521 | 0.667 |  | 0.169
4 | Nc1ccc(-c2ccc(S(=O)(=O)NC[C@@H]3CNCCN3)c(S(N)(=O)=O)c2-c2nn[nH]n2)cn1 [Example 312, (S)-4-(6-aminopyridin-3-yl)-N1-(piperazin-2-ylmethyl)-3-(2H-tetrazol-5-yl)benzene-1,2-disulfonamide] | 1.00 | 1.563 | 0.7813 | 0.3906 | 3.125 | 1.563 | 0.216 | 0.586 | 0.28 | 
5 | Nc1ncccc1-c1ccc(S(=O)(=O)NC[C@@H]2CNCCN2)c(S(N)(=O)=O)c1-c1nn[nH]n1 [Example 313, (S)-4-(2-aminopyridin-3-yl)-N1-(piperazin-2-ylmethyl)-3-(2H-tetrazol-5-yl)benzene-1,2-disulfonamide] | 2.00 | 3.125 | 0.7813 | 0.3906 | 3.125 | 1.563 | 0.0817 | 1.3 | 0.149 | 
6 | Nc1nc2c(-c3ccc(S(=O)(=O)NC[C@H]4CNCCN4)c(S(N)(=O)=O)c3-c3nn[nH]n3)cccc2[nH]1 [Example 314, (R)-4-(2-amino-1H-benzo[d]imidazol-4-yl)-N1-(piperazin-2-ylmethyl)-3-(2H-tetrazol-5-yl)benzene-1,2-disulfonamide] | 1.00 | 0.7813 | 1.563 | 0.7813 | 1.563 | 0.7813 | 0.0326 | 0.485 |  | 0.114
7 | Nc1ccc(-c2ccc(S(=O)(=O)NC[C@H]3CNCCN3)c(S(N)(=O)=O)c2-c2nn[nH]n2)cn1 [Example 315, (R)-4-(6-aminopyridin-3-yl)-N1-(piperazin-2-ylmethyl)-3-(1H-tetrazol-5-yl)benzene-1,2-disulfonamide] | 1.00 | 1.563 | 0.7813 | 0.3906 | 6.25 | 1.563 | 0.169 | 0.459 | 0.211 | 
8 | Nc1ncccc1-c1ccc(S(=O)(=O)NC[C@H]2CNCCN2)c(S(N)(=O)=O)c1-c1nn[nH]n1 [Example 316, (R)-4-(2-aminopyridin-3-yl)-N1-(piperazin-2-ylmethyl)-3-(1H-tetrazol-5-yl)benzene-1,2-disulfonamide] | 2.00 | 3.125 | 0.7813 | 0.3906 | 6.25 | 1.563 | 0.175 | 2.33 | 0.211 | 
9 | C[C@H](CN)NS(=O)(=O)c1ccc(-c2ccnc(N)c2)c(-c2nn[nH]n2)c1S(N)(=O)=O [Example 317, (R)—N1-(1-aminopropan-2-yl)-4-(2-aminopyridin-4-yl)-3-(2H -tetrazol-5-yl) benzene-1,2-disulfonamide] | 0.50 | 1.563 | 1.563 | 0.7813 | 3.125 | 3.125 | 0.17 | 0.495 |  | 0.133
10 | C[C@H](CN)NS(=O)(=O)c1ccc(-c2cccc(N)n2)c(-c2nn[nH]n2)c1S(N)(=O)=O [Example 318, (R)—N1-(1-aminopropan-2-yl)-4-(6-aminopyridin-2-yl)-3-(2H-tetrazol-5-yl) benzene-1,2-disulfonamide] | 1.00 | 1.563 | 3.125 | 0.7813 | 3.125 | 1.563 | 0.158 | 0.704 | 0.142 | 
11 | Nc1ccc2cccc(-c3ccc(S(=O)(=O)N[C@@H]4CNC[C@@H]4N)c(S(N)(=O)=O)c3-c3nn[nH]n3)c2n1 [Example 319, N^1-((3R,4S)-4-aminopyrrolidin-3-yl)-4-(2-aminoquinolin-8-yl)-3-(2H-tetrazol-5-yl)benzene-1,2-disulfonamide] | 1.00 | 0.7813 | 1.563 | 1.563 | 1.563 | 0.7813 | 0.0483 | 0.265 |  | 0.206
